Measurements published in doi:10.1101/2025.09.30.679465v1, “Large-Scale Structure-Based Virtual Screening Identifies Diverse KNa1.1 (KCNT1) Potassium Channel Inhibitors” (biorxiv, 2025).
Substitutions are numbered along the chain they refer to.

Molecular target: T1, KNa1.1 WT/Y796H (Homo sapiens, UniProt Q5JUK3, Y796H)
T1 construct: gene KCNT1; full-length WT KNa1.1 and Y796H KNa1.1 subunits joined by self-cleaving T2A linker in pcDNA6
T1 sequence (Q5JUK3 1-1230): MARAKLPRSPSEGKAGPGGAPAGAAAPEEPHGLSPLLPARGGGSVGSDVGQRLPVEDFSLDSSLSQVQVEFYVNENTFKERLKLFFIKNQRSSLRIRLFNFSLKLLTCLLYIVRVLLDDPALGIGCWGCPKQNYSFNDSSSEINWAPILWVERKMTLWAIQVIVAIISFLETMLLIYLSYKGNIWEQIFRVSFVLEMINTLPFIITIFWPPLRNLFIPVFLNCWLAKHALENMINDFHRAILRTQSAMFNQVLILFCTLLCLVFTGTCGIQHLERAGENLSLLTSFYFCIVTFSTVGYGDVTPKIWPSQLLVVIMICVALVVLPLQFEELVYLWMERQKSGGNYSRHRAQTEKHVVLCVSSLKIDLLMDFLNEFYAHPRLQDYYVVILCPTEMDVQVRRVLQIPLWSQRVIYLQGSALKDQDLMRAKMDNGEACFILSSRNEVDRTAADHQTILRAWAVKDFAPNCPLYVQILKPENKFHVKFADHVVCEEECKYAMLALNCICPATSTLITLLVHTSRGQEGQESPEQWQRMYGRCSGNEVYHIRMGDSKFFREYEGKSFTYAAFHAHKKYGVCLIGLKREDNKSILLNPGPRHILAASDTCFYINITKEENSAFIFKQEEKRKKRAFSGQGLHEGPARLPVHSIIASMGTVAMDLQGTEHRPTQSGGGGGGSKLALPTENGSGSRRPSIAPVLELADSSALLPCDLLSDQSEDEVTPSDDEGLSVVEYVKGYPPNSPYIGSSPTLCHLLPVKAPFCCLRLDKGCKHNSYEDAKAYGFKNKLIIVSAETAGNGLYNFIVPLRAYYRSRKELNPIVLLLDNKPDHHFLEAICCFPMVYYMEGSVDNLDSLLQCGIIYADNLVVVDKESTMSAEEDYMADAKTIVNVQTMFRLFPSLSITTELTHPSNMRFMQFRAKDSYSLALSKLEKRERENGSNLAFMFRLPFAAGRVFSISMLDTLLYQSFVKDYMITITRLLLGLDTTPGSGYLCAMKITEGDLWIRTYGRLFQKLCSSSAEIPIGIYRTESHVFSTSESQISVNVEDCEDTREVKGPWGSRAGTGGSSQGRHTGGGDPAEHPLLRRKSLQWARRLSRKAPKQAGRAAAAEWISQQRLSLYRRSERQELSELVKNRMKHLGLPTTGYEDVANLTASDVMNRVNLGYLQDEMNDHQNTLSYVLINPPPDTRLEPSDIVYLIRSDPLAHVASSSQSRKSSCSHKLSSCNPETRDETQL
T1 sequence (Q5JUK3 1-1230 Y796H): T1 sequence (Q5JUK3 1-1230) with Y796H
Test: thallium flux (Thallos AM), HEK293
Type: cell-based
Description: thallium flux (Thallos AM), HEK293 on KNa1.1 WT/Y796H

IC50: 4.7 µM
SMILES: CC(c1ccccc1)N1CCCN(c2cccc(NC(=O)Nc3cccc(Cl)c3)c2)C1=O (stereo not shown) [compound 1, Cpd1]
